Calls of active or inactive are those of the source. How the calls were made is not given here.
Tested on: CCRIS mutagenicity, Ames/micronucleus/aberration tests
Test: CCRIS mutagenicity studies
[1] = Test System: AMES SALMONELLA TYPHIMURIUM, Strain/Indicator: TA98, Metabolic Activation: NONE, Method: STANDARD PLATE
[2] = Test System: AMES SALMONELLA TYPHIMURIUM, Strain/Indicator: TA100, Metabolic Activation: NONE, Method: STANDARD PLATE
[3] = Test System: AMES SALMONELLA TYPHIMURIUM, Strain/Indicator: TA98, Metabolic Activation: NONE, Method: PREINCUBATION
[4] = Test System: AMES SALMONELLA TYPHIMURIUM, Strain/Indicator: TA100, Metabolic Activation: NONE, Method: PREINCUBATION
[5] = Test System: AMES SALMONELLA TYPHIMURIUM, Strain/Indicator: TA98, Metabolic Activation: RAT, LIVER, S-9, AROCLOR 1254, Method: STANDARD PLATE
[6] = Test System: AMES SALMONELLA TYPHIMURIUM, Strain/Indicator: TA98, Metabolic Activation: RAT, LIVER, S-9, AROCLOR 1254, Method: PREINCUBATION
[7] = Test System: AMES SALMONELLA TYPHIMURIUM, Strain/Indicator: TA100, Metabolic Activation: RAT, LIVER, S-9, AROCLOR 1254, Method: PREINCUBATION

SMILES: c1scc2c1-c1cscc1C1NC21 (stereo not drawn)
- mutagenic call [1]: active; positive
- mutagenic call [2]: active; positive

SMILES: O=[N+]([O-])c1ccccc1Br
- mutagenic call [3]: inactive; negative
- mutagenic call [4]: inactive; negative
- mutagenic call (Test System: AMES SALMONELLA TYPHIMURIUM, Strain/Indicator: TA100, Metabolic Activation: RAT, LIVER, S-9, KANECHLOR 500, Method: PREINCUBATION): active; positive

SMILES: C=C(C)C1C=C2C(COC(=O)CCCCCCCCCCCCCCCCC)=CC=C2C(C)=CC1 (stereo not drawn)
- mutagenic call [1]: inactive; negative
- mutagenic call [5]: inactive; negative
- mutagenic call [2]: active; positive
- mutagenic call (Test System: AMES SALMONELLA TYPHIMURIUM, Strain/Indicator: TA100, Metabolic Activation: RAT, LIVER, S-9, AROCLOR 1254, Method: STANDARD PLATE): active; positive

SMILES: COc1cc(C)cc2c(O)c(-c3c(C)cc4c(O)ccc(O)c4c3OC)cc(O)c12
- mutagenic call [3]: inactive; negative
- mutagenic call [6]: inactive; negative
- mutagenic call [4]: inactive; negative
- mutagenic call [7]: inactive; negative

SMILES: C=CCOC(=O)c1ccccc1C(=O)OCC=C
- mutagenic call (End Point: IN VITRO CHROMOSOMAL ABERRATIONS, Test System: CHO CELLS, Metabolic Activation: RAT, LIVER, S-9, AROCLOR 1254): active; positive; weak response
- mutagenic call (Test System: AMES SALMONELLA TYPHIMURIUM, Strain/Indicator: TA98, Metabolic Activation: HAMSTER, LIVER, S-9, AROCLOR 1254, Method: PREINCUBATION): inactive; negative
- mutagenic call [3]: inactive; negative
- mutagenic call (Test System: AMES SALMONELLA TYPHIMURIUM, Strain/Indicator: TA98, Metabolic Activation: RAT LIVER S-9, PHENOBARBITAL AND BETA-NAPHTHOFLAVONE, Method: PREINCUBATION): inactive; negative
- mutagenic call [6]: inactive; negative
- mutagenic call (Test System: AMES SALMONELLA TYPHIMURIUM, Strain/Indicator: TA100, Metabolic Activation: HAMSTER, LIVER, S-9, AROCLOR 1254, Method: PREINCUBATION): inactive; negative
- mutagenic call [4]: inactive; negative
- mutagenic call (Test System: AMES SALMONELLA TYPHIMURIUM, Strain/Indicator: TA100, Metabolic Activation: RAT LIVER S-9, PHENOBARBITAL AND BETA-NAPHTHOFLAVONE, Method: PREINCUBATION): inactive; negative
- mutagenic call [7]: inactive; negative
- mutagenic call (Test System: AMES SALMONELLA TYPHIMURIUM, Strain/Indicator: TA1535, Metabolic Activation: HAMSTER, LIVER, S-9, AROCLOR 1254, Method: PREINCUBATION): inactive; negative
- mutagenic call (Test System: AMES SALMONELLA TYPHIMURIUM, Strain/Indicator: TA1535, Metabolic Activation: NONE, Method: PREINCUBATION): inactive; negative
- mutagenic call (Test System: AMES SALMONELLA TYPHIMURIUM, Strain/Indicator: TA1535, Metabolic Activation: RAT LIVER S-9, PHENOBARBITAL AND BETA-NAPHTHOFLAVONE, Method: PREINCUBATION): inactive; negative
- mutagenic call (Test System: AMES SALMONELLA TYPHIMURIUM, Strain/Indicator: TA1535, Metabolic Activation: RAT, LIVER, S-9, AROCLOR 1254, Method: PREINCUBATION): inactive; negative
- mutagenic call (Test System: AMES SALMONELLA TYPHIMURIUM, Strain/Indicator: TA1537, Metabolic Activation: HAMSTER, LIVER, S-9, AROCLOR 1254, Method: PREINCUBATION): inactive; negative
- mutagenic call (Test System: AMES SALMONELLA TYPHIMURIUM, Strain/Indicator: TA1537, Metabolic Activation: NONE, Method: PREINCUBATION): inactive; negative
- mutagenic call (Test System: AMES SALMONELLA TYPHIMURIUM, Strain/Indicator: TA1537, Metabolic Activation: RAT LIVER S-9, PHENOBARBITAL AND BETA-NAPHTHOFLAVONE, Method: PREINCUBATION): inactive; negative
- mutagenic call (Test System: AMES SALMONELLA TYPHIMURIUM, Strain/Indicator: TA1537, Metabolic Activation: RAT, LIVER, S-9, AROCLOR 1254, Method: PREINCUBATION): inactive; negative
- mutagenic call (Test System: E.COLI, Strain/Indicator: WP2UVRA/PKM101, Metabolic Activation: NONE, Method: PREINCUBATION): inactive; negative
- mutagenic call (Test System: E.COLI, Strain/Indicator: WP2UVRA/PKM101, Metabolic Activation: RAT LIVER S-9, PHENOBARBITAL AND BETA-NAPHTHOFLAVONE, Method: PREINCUBATION): inactive; negative

SMILES: CN(C)c1ccc(N=Nc2ccccc2C(=O)O)cc1
- mutagenic call (Test System: AMES SALMONELLA TYPHIMURIUM, Strain/Indicator: TA98, Metabolic Activation: RAT, LIVER, S-9, POLYCHLORINATED BIPHENYLS, Method: PREINCUBATION): active; positive
- mutagenic call (Test System: AMES SALMONELLA TYPHIMURIUM, Strain/Indicator: TA100, Metabolic Activation: RAT, LIVER, S-9, POLYCHLORINATED BIPHENYLS, Method: PREINCUBATION): inactive; negative

SMILES: CC(=O)ON(C(C)=O)c1ccc2c(c1)Cc1ccccc1-2
- mutagenic call [1]: active; positive
- mutagenic call [5]: active; positive
- mutagenic call (Test System: AMES SALMONELLA TYPHIMURIUM, Strain/Indicator: TA1538, Metabolic Activation: NONE, Method: STANDARD PLATE): active; positive
- mutagenic call (Test System: AMES SALMONELLA TYPHIMURIUM, Strain/Indicator: TA1538, Metabolic Activation: RAT, LIVER, S-9, KC500 OR PHENOBARBITAL, Method: LIQUID SUSPENSION): active; positive
- mutagenic call (Test System: CHINESE HAMSTER V-79, Strain/Indicator: V-79/6-THIOGUANINE, Metabolic Activation: NONE): active; positive
- mutagenic call (Test System: CHINESE HAMSTER V-79, Strain/Indicator: V-79/8-AZAGUANINE, Metabolic Activation: NONE, Method: STANDARD PLATE): active; positive
- mutagenic call (Test System: UDS HUMAN CELLS, Strain/Indicator: THY INCORP (NON-S-PHASE), Metabolic Activation: NONE, Method: LIQUID SCINTILLATION COUNTING): active; positive
- mutagenic call (Test System: UDS HUMAN FIBROBLASTS, Strain/Indicator: THY INCORP (NON-S-PHASE), Metabolic Activation: NONE, Method: AUTORADIOGRAPHY): active; positive
- mutagenic call (Test System: UDS HUMAN FIBROBLASTS, Strain/Indicator: THY INCORP (NON-S-PHASE), Metabolic Activation: NONE, Method: LIQUID SCINTILLATION COUNTING): active; positive
- mutagenic call (Test System: UDS HUMAN LYMPHOCYTES, Strain/Indicator: THY INCORP (NON-S-PHASE), Metabolic Activation: NONE, Method: LIQUID SCINTILLATION COUNTING): active; positive
- mutagenic call (Test System: UDS RODENT CELLS, Strain/Indicator: THY INCORP (NON-S-PHASE), Metabolic Activation: NONE, Method: AUTORADIOGRAPHY): active; positive
- mutagenic call (Test System: UDS RODENT CELLS, Strain/Indicator: THY INCORP (NON-S-PHASE), Metabolic Activation: NONE, Method: LIQUID SCINTILLATION COUNTING): active; positive
- mutagenic call (Test System: UDS RODENT HEPATOCYTES, Strain/Indicator: THY INCORP (NON-S-PHASE), Method: LIQUID SCINTILLATION COUNTING): active; positive
- mutagenic call (Test System: UDS RODENT PRIMARY CELLS, Strain/Indicator: THY INCORP (NON-S-PHASE), Metabolic Activation: NONE, Method: AUTORADIOGRAPHY): active; positive
